In this assay the test system is tobacco-smoke-enhanced cough response to 0.3 M citric acid. Briefly: Citric acid-induced cough and Penh in tobacco smoke-exposed conscious guinea-pigs (plethysmograph). Format: in vivo, guinea-pig. As to conditions: 1 hour prior to citric acid challenge, mean±s.e. mean; for percentage inhibition of tobacco-smoke-enhanced cough: vs vehicle. On the procedure: Male Dunkin-Hartley guinea-pigs (350-550 g) are exposed to either air or tobacco smoke generated by four research cigarettes, (2R4F; Kentucky, USA) for a 3 second puff every 30 sec, for 2 days. At 24 hours after the last exposure conscious, unrestrained animals are placed in a plethysmograph chamber (Buxco, USA) and challenged with an aerosol of 0.3 M citric acid in 0.9% saline for 10 minutes. Cough and Penh AUC (measure of bronchoconstriction) are recorded during the 10 minute exposure and for a further 10 minutes after exposure using the method described in El-Hashim A. et al. Pulmonary Pharmacology & Therapeutics 17(1) (2004) pages 11-18.
To evaluate the effects of 2-(2-Hydroxy-ethylcarbamoyloxymethyl)-5,7-dimethyl-3-(2-methylsulfamoyl-phenyl)-4-oxo-3,4-dihydro-quinazoline-6-carboxylic acid ethyl ester on the enhanced cough response, animals are dosed subcutaneously with the compound (0.3-10 mg/kg, n=3-10) or vehicle (3:1 PEG200:saline, n=10) at 1 hour prior to citric acid challenge. The percentage inhibition of the cough response following compound administration compared with vehicle administration in tobacco smoke-exposed animals is determined. Data are expressed as mean±s.e. mean and significance is defined as p<0.05 (ANOVA & Dunnett's multiple comparison test).

The mark [1] stands for this setting: 3 mg/kg subcutaneously, significant.

As for `CCOC(=O)c1c(C)cc2nc(COC(=O)NCCO)n(-c3ccccc3S(=O)(=O)NC)c(=O)c2c1C` [2-(2-Hydroxy-ethylcarbamoyloxy-methyl)-5,7-dimethyl-3-(2-methylsulfamoyl-phenyl)-4-oxo-3,4-dihydro-quinazoline-6-carboxylic acid ethyl ester], the “inhibition of baseline Penh value (measure of bronchoconstriction)” value reads like this: (0.3 mg/kg subcutaneously) 48±17%; (1 mg/kg subcutaneously) 55±19%; under setting [1], 77±10%; (10 mg/kg subcutaneously) 86±2%. Further, the “percentage inhibition of tobacco-smoke-enhanced cough” value by setting is: (0.3 mg/kg subcutaneously) 18±14%; (1 mg/kg subcutaneously, significant) 49±17%; under setting [1], 80±13%; (10 mg/kg subcutaneously, significant) 100±0%.

Source of the values: patent publication US20080004296A1, “Organic Compounds” (priority 2004, published 2008).
